Results taken from ChEMBL document CHEMBL6078711, “Design, synthesis, and biological evaluation of steroidal indole derivatives as membrane-targeting antibacterial candidates” (Eur J Med Chem, 2025).
≈ marks a conversion by molar mass, not a printed value. Calls of active or inactive are those of the source. No cut-off for these calls is given here.

Experiments:
Staphylococcus aureus [1] = assay: Antibacterial activity against Staphylococcus aureus CGMCC1.8721 assessed as reduction in bacterial growth; format: functional
Staphylococcus aureus [2] = assay: Antibacterial activity against methicillin-resistant Staphylococcus aureus ATCC 43300 assessed as reduction in bacterial growth; format: functional
Staphylococcus aureus [3] = assay: Bactericidal activity against Staphylococcus aureus CGMCC1.8721 assessed as reduction in bacterial growth; format: functional
Staphylococcus aureus [4] = assay: Bactericidal activity against methicillin-resistant Staphylococcus aureus CGMCC 1.12409 assessed as reduction in bacterial growth; format: functional
A549 = assay: Cytotoxicity against human A549 cells upto 20 uM; format: functional, cell-based
HepG2 [5] = assay: Cytotoxicity against human HepG2 cells upto 20 uM; format: functional, cell-based
HepG2 [6] = assay: Cytotoxicity against human HepG2 cells assessed as cell viability upto 40 uM relative to control; format: functional; settings: up to 40 µM
[7] = Cytotoxicity against human HEK293T cells assessed as cell viability upto 40 uM relative to control; format: toxicity, cell-based, HEK-293T; settings: read-out: Activity
[8] = Hemolytic activity against rabbit Red blood cell assessed as hemolysis; format: toxicity, cell-based, Oryctolagus cuniculus, Erythrocyte; settings: red blood cells
Staphylococcus aureus [9] = assay: Antibacterial activity against Staphylococcus aureus CGMCC1.8721 assessed as reduction in bacterial growth at 4 to 8 times MIC measured at 0.5 hrs by time kill assay; format: functional; set-up: scale not given: the % may be the effect or the level left
Staphylococcus aureus [10] = assay: Antibacterial activity against Staphylococcus aureus CGMCC1.8721 assessed as reduction in bacterial growth at 4 to 8 times MIC measured after 24 hrs by time kill assay; format: functional, organism-based
Staphylococcus aureus [11] = assay: Antibacterial activity against Staphylococcus aureus CGMCC1.8721 assessed as reduction in bacterial growth in presence of Na+; format: functional
Staphylococcus aureus [12] = assay: Antibacterial activity against Staphylococcus aureus CGMCC1.8721 assessed as reduction in bacterial growth in presence of K+; format: functional
Staphylococcus aureus [13] = assay: Antibacterial activity against Staphylococcus aureus CGMCC1.8721 assessed as reduction in bacterial growth in presence of Ca2+; format: functional
Staphylococcus aureus [14] = assay: Antibacterial activity against Staphylococcus aureus CGMCC1.8721 assessed as reduction in bacterial growth in presence of Mg2+; format: functional
Staphylococcus aureus [15] = assay: Antibacterial activity against Staphylococcus aureus CGMCC1.8721 assessed as reduction in bacterial growth in presence of Fe2+; format: functional
Staphylococcus aureus [16] = assay: Antibacterial activity against Staphylococcus aureus CGMCC1.8721 assessed as reduction in bacterial growth in presence of Fe3+; format: functional
Staphylococcus aureus [17] = assay: Antibacterial activity against methicillin-resistant Staphylococcus aureus ATCC 43300 assessed as reduction in bacterial growth in presence of K+; format: functional
Staphylococcus aureus [18] = assay: Antibacterial activity against methicillin-resistant Staphylococcus aureus ATCC 43300 assessed as reduction in bacterial growth in presence of Ca2+; format: functional
Staphylococcus aureus [19] = assay: Antibacterial activity against methicillin-resistant Staphylococcus aureus ATCC 43300 assessed as reduction in bacterial growth in presence of Mg2+; format: functional
Staphylococcus aureus [20] = assay: Antibacterial activity against methicillin-resistant Staphylococcus aureus ATCC 43300 assessed as reduction in bacterial growth in presence of Zn2+; format: functional
Staphylococcus aureus [21] = assay: Antibacterial activity against methicillin-resistant Staphylococcus aureus ATCC 43300 assessed as reduction in bacterial growth in presence of Fe2+; format: functional
Staphylococcus aureus [22] = assay: Antibacterial activity against methicillin-resistant Staphylococcus aureus ATCC 43300 assessed as reduction in bacterial growth in presence of Fe3+; format: functional
Staphylococcus aureus [23] = assay: Antibacterial activity against methicillin-resistant Staphylococcus aureus CGMCC 1.12409 assessed as reduction in bacterial growth in presence of Na+; format: functional
Staphylococcus aureus [24] = assay: Antibacterial activity against methicillin-resistant Staphylococcus aureus CGMCC 1.12409 assessed as reduction in bacterial growth in presence of K+; format: functional
Staphylococcus aureus [25] = assay: Antibacterial activity against methicillin-resistant Staphylococcus aureus CGMCC 1.12409 assessed as reduction in bacterial growth in presence of Mg2+; format: functional
Staphylococcus aureus [26] = assay: Antibacterial activity against methicillin-resistant Staphylococcus aureus CGMCC 1.12409 assessed as reduction in bacterial growth in presence of Zn2+; format: functional
Staphylococcus aureus [27] = assay: Antibacterial activity against methicillin-resistant Staphylococcus aureus CGMCC 1.12409 assessed as reduction in bacterial growth in presence of Fe2+; format: functional
Staphylococcus aureus [28] = assay: Antibacterial activity against methicillin-resistant Staphylococcus aureus CGMCC 1.12409 assessed as reduction in bacterial growth in presence of Fe3+; format: functional
Staphylococcus aureus [29] = assay: Antibacterial activity against methicillin-resistant Staphylococcus aureus ATCC 33591 assessed as reduction in bacterial growth in presence of K+; format: functional
Staphylococcus aureus [30] = assay: Antibacterial activity against methicillin-resistant Staphylococcus aureus ATCC 33591 assessed as reduction in bacterial growth in presence of Ca2+; format: functional
Staphylococcus aureus [31] = assay: Antibacterial activity against methicillin-resistant Staphylococcus aureus ATCC 33591 assessed as reduction in bacterial growth in presence of Mg2+; format: functional
Staphylococcus aureus [32] = assay: Antibacterial activity against methicillin-resistant Staphylococcus aureus ATCC 33591 assessed as reduction in bacterial growth in presence of Fe3+; format: functional
Staphylococcus aureus [33] = assay: Antibiofilm activity against Staphylococcus aureus CGMCC1.8721 assessed as biofilm eradication; format: functional, organism-based
Staphylococcus aureus [34] = assay: Antibiofilm activity against Staphylococcus aureus CGMCC1.8721 assessed as inhibition of biofilm formation at 1 times MIC; format: functional
Cell membrane [35] = assay: Disruption of cell membrane integrity in Staphylococcus aureus CGMCC1.8721 assessed as increase in protein leakage at 4 times MIC; format: subcellular
Staphylococcus aureus [36] = assay: Antibacterial activity against Staphylococcus aureus CGMCC1.8721 assessed as induction of ROS production at 1 to 4 times MIC by DCFH-DA staining based flow cytometry analysis; format: functional, organism-based
Staphylococcus aureus [37] = assay: Antibacterial activity against Staphylococcus aureus CGMCC1.8721 assessed as reduction in metabolic activity at 1 to 4 times MIC by Alamar Blue assay; format: functional, organism-based
Staphylococcus aureus [38] = assay: Antibacterial activity against Staphylococcus aureus CGMCC1.8721 assessed as reduction in metabolic activity at 4 times MIC by Alamar Blue assay; format: functional; set-up: scale not given: the % may be the effect or the level left
Staphylococcus aureus [39] = assay: Antibacterial activity against Staphylococcus aureus CGMCC1.8721 assessed as reduction in bacterial growth in presence of phosphatidylcholine; format: functional, organism-based
Cell membrane [40] = assay: Disruption of cell membrane integrity in Staphylococcus aureus CGMCC1.8721 assessed as increase in red fluorescence at 4 times MIC by SYTO 9/PI staining based confocal microscopic analysis; format: subcellular
Cell membrane [41] = assay: Disruption of cell membrane integrity in Staphylococcus aureus CGMCC1.8721 assessed as appearance of wrinkled cell surface at 1 to 4 times MIC by scanning electron microscopic analysis; format: subcellular
Cell membrane [42] = assay: Disruption of cell membrane integrity in Staphylococcus aureus CGMCC1.8721 assessed as appearance of ruptured cell surface at 1 to 4 times MIC by scanning electron microscopic analysis; format: subcellular
Staphylococcus aureus [43] = assay: Antibacterial activity against Methicillin-resistant Staphylococcus aureus CGMCC1.8721 infected in mouse skin infection model assessed as reduction in bacterial clones at 5 to 10 mg/kg, sc; format: functional, organism-based; settings: dose 5-10 mg/kg
Staphylococcus aureus [44] = assay: Antibacterial activity against Methicillin-resistant Staphylococcus aureus CGMCC1.8721 infected in mouse skin infection model assessed as reduction in bacterial load at 10 mg/kg, sc; format: functional; set-up: scale not given: the % may be the effect or the level left

`CCNCc1ccc2[nH]cc(C[C@@H](C)[C@H]3CC[C@H]4[C@@H]5CC[C@@H]6C[C@H](O)CC[C@]6(C)[C@H]5CC[C@]34C)c2c1` gave an MIC (Staphylococcus aureus [1]) of 1 µg/mL (≈ 2.04 µM), an MIC (Staphylococcus aureus [2]) of 1 µg/mL (≈ 2.04 µM) and an MBC (Staphylococcus aureus [3]) of 2 µg/mL (≈ 4.08 µM). For the same compound, the MBC (Staphylococcus aureus [4]) was 4 µg/mL (≈ 8.15 µM), the Activity (A549) was “Active” and the Activity (HepG2 [5]) was “Active”. For the same compound, the Activity (HepG2 [6]) was >70%, the viability at up to 40 µM [7] was > 70% and the HC50 [8] was > 128 µg/mL. The Activity (Staphylococcus aureus [9]) was 100%, the Activity (Staphylococcus aureus [10]) was “Active” and the MIC (Staphylococcus aureus [11]) was 1 µg/mL. For the same compound, the MIC (Staphylococcus aureus [12]) was 1 µg/mL, the MIC (Staphylococcus aureus [13]) was 1 µg/mL and the MIC (Staphylococcus aureus [14]) was 1 µg/mL. For the same compound, the MIC (Staphylococcus aureus [15]) was 1 µg/mL, the MIC (Staphylococcus aureus [16]) was 1 µg/mL and the MIC (Staphylococcus aureus [17]) was 1 µg/mL. It also gave an MIC (Staphylococcus aureus [18]) of 1 µg/mL, an MIC (Staphylococcus aureus [19]) of 1 µg/mL and an MIC (Staphylococcus aureus [20]) of 1 µg/mL. For the same compound, the MIC (Staphylococcus aureus [21]) was 1 µg/mL, the MIC (Staphylococcus aureus [22]) was 1 µg/mL and the MIC (Staphylococcus aureus [23]) was 2 µg/mL. For the same compound, the MIC (Staphylococcus aureus [24]) was 2 µg/mL, the MIC (Staphylococcus aureus [25]) was 2 µg/mL and the MIC (Staphylococcus aureus [26]) was 2 µg/mL. It also gave an MIC (Staphylococcus aureus [27]) of 2 µg/mL, an MIC (Staphylococcus aureus [28]) of 2 µg/mL and an MIC (Staphylococcus aureus [29]) of 2 µg/mL. The MIC (Staphylococcus aureus [30]) was 2 µg/mL, the MIC (Staphylococcus aureus [31]) was 2 µg/mL and the MIC (Staphylococcus aureus [32]) was 2 µg/mL. The Activity (Staphylococcus aureus [33]) was “Active”, the “inhibition (INH)” value (Staphylococcus aureus [34]) was 64.1% and the Activity (Cell membrane [35]) was “Active”. For the same compound, the Activity (Staphylococcus aureus [36]) was “Active”, the Activity (Staphylococcus aureus [37]) was “Active” and the Activity (Staphylococcus aureus [38]) was 75%. The Activity (Staphylococcus aureus [39]) was “inactive”, the Activity (Cell membrane [40]) was “Active” and the Activity (Cell membrane [41]) was “Active”. The Activity (Cell membrane [42]) was “Active”, the AC30 (Staphylococcus aureus [43]) was “Active” and the Activity (Staphylococcus aureus [44]) was 76%.
